Laboratory results reported in patent US9200008B2 (ASKA PHARMACEUTICAL CO., LTD., priority 2010, dated 2015).

test system: Human prostate cancer cell lines (PC-3 cells); experiment: Measurement of cell death-inducing activity (Test Example 1); assay type: cell-based; conditions: PC-3, 48 h, 48 hours after addition, tested at 10, 1, 0.1, 0.025 and 0.00625 μmol/L, qualitative evaluation of 10 fields, read-out: Concentration showing the cell death-inducing activity (cell death-inducing rate not less than 40%)
How it was run: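 PC-3 cells seeded at 1×10^5 cells/well and grown 48 h at 37 °C, 5% CO2, then exposed to compound at 10, 1, 0.1, 0.025 and 0.00625 μmol/L (DMSO control) for a further 48 h. Activity was called where cell death-inducing rate was not less than 40%.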

Cc1nc(-c2ccc(F)cc2Cl)sc1COC(=O)Nc1ccc2c(c1)nc1n2CCC1 [Example 13-30] was tested. Which minimal effective concentration did it give?
Its minimal effective concentration is 0.1 µM.

CCc1ccccc1-c1nc(C)c(NC(=O)OCc2ccc3c(c2)ncn3C)s1 [Example 9-36] was tested. Which minimal effective concentration did it give?
Its minimal effective concentration is 0.025 µM.

With Cc1ccccc1-c1ncc(C(=O)N/N=C/c2cc(C)c(O)c(C)c2)[nH]1 [Example 25-2, 2-(2-Methylphenyl)-3H-imidazole-4-carboxylic acid[1-(4-hydroxy-3,5-dimethylphenyl)methylidene]hydrazide] as the compound, how does the minimal effective concentration read?
The minimal effective concentration was 10 µM.

CCCc1nc(-c2ccc(Cl)cc2OC)sc1COC(=O)Nc1ccc2c(c1)ncn2C [Example 13-68] was tested. Which minimal effective concentration did it give?
The minimal effective concentration was 1 µM.

How did the minimal effective concentration turn out when COc1ccc(/C=N/NC(=O)c2sc(-c3cccnc3)nc2C)cc1O [Example 23-41] was run?
Its minimal effective concentration is 1 µM.

With CCn1nc(-c2ccc(Cl)cc2OC)cc1COC(=O)Nc1ccc2c(c1)nc1n2CCC1 [Example 13-109] as the compound, how does the minimal effective concentration read?
The minimal effective concentration was 0.00625 µM.

How did the minimal effective concentration turn out when COc1ccc(/C=N/NC(=O)c2sc(-c3ccc(Cl)cc3OC)nc2C)cc1 [Example 23-79] was run?
The minimal effective concentration was 0.1 µM.

How did the minimal effective concentration turn out when COc1cc(Cl)ccc1-c1nc(C)c(NC(=O)OCc2ccc3c(ccn3C)c2)s1 [Example 9-30] was run?
Its minimal effective concentration is 1 µM.

Which minimal effective concentration does the source give for CCCc1nc(-c2ccc(Cl)cc2)sc1C(=O)N/N=C/c1cc(C)c(O)c(C)c1 [Example 23-107] here?
Its minimal effective concentration is 10 µM.

With Cc1cc(Cl)ccc1-c1nc(C)c(COC(=O)Nc2ccc3c(c2)nnn3C)s1 [Example 13-3] as the compound, how does the minimal effective concentration read?
Its minimal effective concentration is 0.1 µM.

COc1ccc(/C=N/NC(=O)c2sc(-c3ccccc3F)nc2C)cc1 [Example 23-65] was tested. Which minimal effective concentration did it give?
The minimal effective concentration was 1 µM.

COc1ccccc1-c1nc(C)c(C(=O)N/N=C/c2ccc3c(c2)CCO3)s1 [Example 23-153] was tested. Which minimal effective concentration did it give?
The minimal effective concentration was 0.1 µM.

How did the minimal effective concentration turn out when CCn1cnc2cc(NC(=O)OCc3cc(-c4ccc(Cl)cc4Cl)ns3)ccc21 [Example 47-12] was run?
Its minimal effective concentration is 10 µM.

Which minimal effective concentration does the source give for Cc1ccc(-c2cc(COC(=O)Nc3ccc4c(cnn4C)c3)n(C)n2)c(C)c1 [Example 13-131] here?
The minimal effective concentration was 1 µM.

For COc1cc(C)ccc1-c1nc(C)c(NC(=O)OCc2ccc3sc(C)nc3c2)s1 [Example 37-2], which minimal effective concentration is on record?
Its minimal effective concentration is 1 µM.

With Cc1nc(-c2cccs2)sc1NC(=O)OCc1ccc2c(c1)ncn2C [Example 9-191] as the compound, how does the minimal effective concentration read?
The minimal effective concentration was 10 µM.

With Cc1ccc(-c2nc(C)c(NC(=O)OCc3ccc4c(cnn4C)c3)s2)c(C)c1 [Example 9-130] as the compound, how does the minimal effective concentration read?
Its minimal effective concentration is 0.025 µM.

CCn1cc2ccc(COC(=O)Nc3cc(-c4ccc(Cl)cc4OC)nn3CC)cc2n1 [Example 9-302] was tested. Which minimal effective concentration did it give?
Its minimal effective concentration is 0.1 µM.

With COc1ccc(NC(=O)OCc2cc(-c3ccc(Cl)cc3OC)nn2C)cc1F [Example 13-71] as the compound, how does the minimal effective concentration read?
The minimal effective concentration was 1 µM.

How did the minimal effective concentration turn out when COc1ccc(-c2cc(NC(=O)OCc3ccc4nn(C)cc4c3)n(C)n2)c(OC)c1 [Example 9-294] was run?
Its minimal effective concentration is 1 µM.

Which minimal effective concentration does the source give for COc1ccccc1-c1nc(C)c(C(=O)N/N=C/c2ccc3[nH]ccc3c2)s1 [Example 23-90] here?
The minimal effective concentration was 0.1 µM.

How did the minimal effective concentration turn out when COc1ccc(/C=N/NC(=O)c2sc(-c3ccccc3Cl)nc2C)c(Cl)c1O [Example 23-4] was run?
Its minimal effective concentration is 0.1 µM.

For COc1ccc(/C=N/NC(=O)c2sc(-c3ccc(Cl)cc3)nc2C)cc1O [Example 23-7], which minimal effective concentration is on record?
Its minimal effective concentration is 0.1 µM.

How did the minimal effective concentration turn out when COc1cc(Cl)ccc1-c1nc(C)c(COC(=O)Nc2ccc3c(c2)nc2n3C(C)CCC2)s1 (stereo not shown) [Example 13-36] was run?
The minimal effective concentration was 10 µM.

For COc1ccccc1-c1cc(COC(=O)Nc2ccc3c(c2)nc2n3CCOC2)n(C)n1 [Example 13-95], which minimal effective concentration is on record?
Its minimal effective concentration is 0.025 µM.

COc1ccc(/C=N/NC(=O)c2sc(-c3ccccc3OC)nc2C)cc1O [Example 23-14] was tested. Which minimal effective concentration did it give?
Its minimal effective concentration is 0.1 µM.

How did the minimal effective concentration turn out when CCCn1cnc2cc(COC(=O)Nc3sc(-c4ccc(C)cc4OC)nc3C)ccc21 [Example 9-68] was run?
Its minimal effective concentration is 0.1 µM.

How did the minimal effective concentration turn out when COc1ccc(/C=N/NC(=O)c2sc(-c3ccccc3O)nc2C)cc1O [Example 23-57] was run?
The minimal effective concentration was 10 µM.

How did the minimal effective concentration turn out when CCn1nc(-c2ccc(Cl)cc2OC)cc1NC(=O)OCc1ccc2c(c1)nc1n2CCOC1 [Example 9-248] was run?
Its minimal effective concentration is 0.025 µM.

Which minimal effective concentration does the source give for COc1ccccc1-c1cc(C(=O)N/N=C/c2ccc3c(c2)nc2n3CCOC2)sn1 [Example 49-4, 3-(2-Methoxyphenyl)isothiazole-5-carboxylic acid[1-(3,4-dihydro-1H-2-oxa-4a,9-diazafluoren-7-yl)methylidene]hydrazide] here?
Its minimal effective concentration is 10 µM.

With CCn1nc2c(c1NC(=O)OCc1ccc3c(c1)ncn3C)COc1ccccc1-2 [Example 9-321] as the compound, how does the minimal effective concentration read?
The minimal effective concentration was 10 µM.

For CCn1nc(-c2ccc(F)cc2OC)cc1NC(=O)OCc1ccc2c(cnn2C)c1 [Example 9-279], which minimal effective concentration is on record?
Its minimal effective concentration is 1 µM.

COc1ccc(COCC(=O)c2sc(-c3ccc(C)cc3C)nc2C)cc1 [Example 31-1, 1-[2-(2,4-Dimethylphenyl)-4-methylthiazol-5-yl]-2-(4-methoxybenzyloxy)ethanone] was tested. Which minimal effective concentration did it give?
The minimal effective concentration was 10 µM.

With Cc1ccc(-c2cc(NC(=O)OC(C)c3ccc4c(c3)ncn4C)n(C)n2)c(C)c1 (stereo not shown) [Example 9-339] as the compound, how does the minimal effective concentration read?
Its minimal effective concentration is 10 µM.

COc1ccc(CN(C)NC(=O)c2sc(-c3ccc(F)cc3F)nc2C)cc1 [Example 16-7] was tested. Which minimal effective concentration did it give?
The minimal effective concentration was 1 µM.

Which minimal effective concentration does the source give for CCn1cnc2cc(COC(=O)Nc3cc(-c4ccc(Cl)cc4OC)nn3C)ccc21 [Example 9-223] here?
Its minimal effective concentration is 0.00625 µM.

Which minimal effective concentration does the source give for COc1cc(Cl)ccc1-c1nc(C)c(C(=O)N/N=C/c2ccc(O)c(O)c2)s1 [Example 23-77] here?
Its minimal effective concentration is 1 µM.

CCn1nc(-c2ccc(C)cc2OC)cc1COC(=O)Nc1ccc2c(c1)nc1n2CCCC1 [Example 13-121] was tested. Which minimal effective concentration did it give?
The minimal effective concentration was 0.025 µM.

Which minimal effective concentration does the source give for Cc1cc(Cl)ccc1-c1nc(C)c(C(=O)NNCc2ccc3c(ccn3C)c2)s1 [Example 17-1] here?
Its minimal effective concentration is 0.1 µM.

How did the minimal effective concentration turn out when CCc1nc2cc(COC(=O)Nc3sc(-c4ccc(Cl)cc4OC)nc3C)ccc2n1C [Example 9-82] was run?
Its minimal effective concentration is 0.025 µM.

Which minimal effective concentration does the source give for CCc1nc(-c2ccc(F)cc2C)sc1NC(=O)OCc1ccc2nn(CC)cc2c1 [Example 9-369] here?
Its minimal effective concentration is 1 µM.

For Cc1nc(-c2ccc(F)cc2Cl)sc1NC(=O)OCc1ccc2c(c1)nc(C)n2C [Example 9-79], which minimal effective concentration is on record?
Its minimal effective concentration is 0.1 µM.

COc1cc(Cl)ccc1-c1nc(C)c(NC(=O)OCc2ccc3c(c2)nc(C)n3C)s1 [Example 9-76] was tested. Which minimal effective concentration did it give?
The minimal effective concentration was 0.025 µM.

Cc1cccc(-c2nc(C)c(C(=O)N/N=C/c3ccc(OC(F)F)c(O)c3)s2)c1C [Example 23-117] was tested. Which minimal effective concentration did it give?
Its minimal effective concentration is 1 µM.

For COc1cc(C)ccc1-c1cc(NC(=O)OCc2ccc3c(c2)nc2n3CCCC2)n(C)n1 [Example 9-269], which minimal effective concentration is on record?
Its minimal effective concentration is 0.1 µM.

How did the minimal effective concentration turn out when COc1cc(Cl)ccc1-c1nc(C)c(COC(=O)Nc2ccc3c(c2)nc2n3CCCC2)s1 [Example 13-31] was run?
The minimal effective concentration was 1 µM.

CCc1nc(-c2ccc(Cl)cc2C)sc1NC(=O)OCc1ccc2c(c1)nc1n2CCC1 [Example 9-349] was tested. Which minimal effective concentration did it give?
Its minimal effective concentration is 0.025 µM.

How did the minimal effective concentration turn out when CCc1nc(-c2ccc(F)cc2OC)sc1NC(=O)OCc1ccc2c(c1)nc1n2CCCC1 [Example 9-352] was run?
The minimal effective concentration was 0.1 µM.

With COc1ccc(/C=N/NC(=O)c2sc(-c3ncccc3C)nc2C)cc1O [Example 23-26] as the compound, how does the minimal effective concentration read?
The minimal effective concentration was 1 µM.

How did the minimal effective concentration turn out when COc1cc(F)ccc1-c1nc(C)c(NC(=O)OCc2ccc3c(c2)ncn3C)s1 [Example 9-38] was run?
Its minimal effective concentration is 0.00625 µM.

With COc1cc(Cl)ccc1-c1nc(C)c(NC(=O)OCc2ccc3c(c2)nc2n3CC(O)C2)s1 (stereo not shown) [Example 9-340] as the compound, how does the minimal effective concentration read?
Its minimal effective concentration is 0.025 µM.

For COc1ccccc1-c1nc(C)c(NC(=O)OCc2ccc3c(c2)ncn3C)s1 [Example 9-37], which minimal effective concentration is on record?
The minimal effective concentration was 0.025 µM.

Which minimal effective concentration does the source give for Cc1cc(F)ccc1-c1nc(C)c(NC(=O)OCc2ccc3c(c2)nnn3C)s1 [Example 9-19] here?
The minimal effective concentration was 0.025 µM.

How did the minimal effective concentration turn out when CCn1cnc2cc(NC(=O)OCc3cc(-c4ccc(Cl)cc4OC)ns3)ccc21 [Example 47-11] was run?
Its minimal effective concentration is 0.1 µM.

With CCn1ncc2ccc(COC(=O)Nc3cc(-c4ccc(Cl)cc4OC)nn3C)cc21 [Example 9-298] as the compound, how does the minimal effective concentration read?
Its minimal effective concentration is 10 µM.

Which minimal effective concentration does the source give for COc1cc(C)ccc1-c1cc(NC(=O)OCc2ccc3c(c2)ncn3C)n(C)n1 [Example 9-226] here?
The minimal effective concentration was 0.00625 µM.

Which minimal effective concentration does the source give for COc1cc(Cl)ccc1-c1cc(NC(=O)OCc2ccc3c(c2)ncn3C)sn1 [Example 45-2] here?
The minimal effective concentration was 1 µM.

How did the minimal effective concentration turn out when Cc1ccc(-c2cc(NC(=O)OCc3ccc4c(c3)nc3n4CCOC3)n(C)n2)c(C)c1 [Example 9-251] was run?
The minimal effective concentration was 0.025 µM.

For COc1cc(C)ccc1-c1nc(C)c(NC(=O)OCc2ccc3c(c2)nc2n3CCNC2)s1 [Example 39-1, [2-(2-Methoxy-4-methylphenyl)-4-methylthiazol-5-yl]carbamic acid 1,2,3,4-tetrahydrobenzo[4,5]imidazo[1,2-a]pyrazin-8-ylmethyl ester], which minimal effective concentration is on record?
Its minimal effective concentration is 0.1 µM.

For CCc1nc(-c2ccc(C)cc2OC)sc1NC(=O)OCc1ccc2c(cnn2CC)c1 [Example 9-174], which minimal effective concentration is on record?
Its minimal effective concentration is 0.025 µM.

For COc1ccc(CN(C)NC(=O)c2cc(-c3ccc(Cl)cc3OC)n[nH]2)cc1 [Example 18-1, 5-(4-Chloro-2-methoxyphenyl)-2H-pyrazole-3-carboxylic acid N′-(4-methoxybenzyl)-N′-methyl hydrazide], which minimal effective concentration is on record?
The minimal effective concentration was 1 µM.

How did the minimal effective concentration turn out when CCc1nc2cc(COC(=O)Nc3cc(-c4ccc(Cl)cc4Cl)nn3C)ccc2n1C [Example 9-241] was run?
Its minimal effective concentration is 10 µM.

For Cc1cccc(-c2nc(C)c(C(=O)N/N=C/c3cc(C)c(O)c(C)c3)s2)c1C [Example 23-23], which minimal effective concentration is on record?
Its minimal effective concentration is 1 µM.

How did the minimal effective concentration turn out when CCn1cnc2cc(NC(=O)OCc3sc(-c4ccc(Cl)cc4C)nc3C)ccc21 [Example 13-17] was run?
The minimal effective concentration was 0.025 µM.

Which minimal effective concentration does the source give for Cc1cc(Cl)ccc1-c1nc(C)c(COC(=O)Nc2ccc3c(c2)nc2n3CCOC2)s1 [Example 13-26] here?
The minimal effective concentration was 0.00625 µM.

For COc1cccc(-c2nc(C)c(C(=O)N/N=C/c3cc(C)c(O)c(C)c3)s2)c1C [Example 23-131], which minimal effective concentration is on record?
Its minimal effective concentration is 1 µM.

Which minimal effective concentration does the source give for Cc1ccc(-c2nc(C)c(NC(=O)OCc3ccc4c(c3)ncn4C)s2)c(C)c1 [Example 9-42] here?
The minimal effective concentration was 0.00625 µM.
